Results reported in patent US20230293407A1, “Compositions Comprising (Bio)-Alkanediols with Antimicrobials for Product Protection” (Symrise AG, priority 2020, published 2023).

Assays:
Test in all cases: preservation efficacy test (PET), European Pharmacopoeia 5.1.3
Type in all cases: cell-based
[1] = system: Pseudomonas aeruginosa; details: for count at 7 days / count at 14 days / count at 28 days / count at 2 days: PA, use concentration in label
[2] = system: Escherichia coli
[3] = system: Candida albicans; details: for count at 28 days / count at 7 days / count at 14 days: CA, use concentration in label
[4] = system: Staphylococcus aureus; details: for count at 7 days / count at 14 days / count at 28 days / count at 2 days: SA, use concentration in label
[5] = 2 days after inoculation, substance at given % in test formulation
[6] = 7 days after inoculation, substance at given % in test formulation
[7] = 14 days after inoculation, substance at given % in test formulation
[8] = 28 days after inoculation, substance at given % in test formulation
[9] = EC, 7 days after inoculation, use concentration in label
[10] = EC, 14 days after inoculation, use concentration in label
[11] = EC, 28 days after inoculation, use concentration in label
[12] = 2 days after inoculation, o/w emulsion (Table 53)
[13] = 7 days after inoculation, o/w emulsion (Table 53)
[14] = 14 days after inoculation, o/w emulsion (Table 53)
[15] = 28 days after inoculation, o/w emulsion (Table 53)
[16] = in wet wipes, 14 days after inoculation
[17] = in wet wipes, 28 days after inoculation

CCCCCCCC(=O)OCC(O)CO (stereo not drawn) [0.2% glyceryl caprylate]
PA germ count, 2 days [1, 5]: 1 | PA germ count, 7 days [1, 6]: 1 | PA germ count, 14 days [1, 7]: 1 | PA germ count, 28 days [1, 8]: 1 | EC germ count, 2 days [2, 5]: 1 | EC germ count, 7 days [2, 6]: 1 | EC germ count, 14 days [2, 7]: 1 | EC germ count, 28 days [2, 8]: 1 | CA germ count, 2 days [3, 5]: 12.000 | CA germ count, 7 days [3, 6]: 260 | CA germ count, 14 days [3, 7]: 1 | CA germ count, 28 days [3, 8]: 1 | SA germ count, 2 days [4, 5]: 1 | SA germ count, 7 days [4, 6]: 1 | SA germ count, 14 days [4, 7]: 1 | SA germ count, 28 days [4, 8]: 1

CC(CO)CCCC1CCCCC1 (stereo not drawn) [1.0% 2-Methyl 5-Cyclohexylpentanol]
PA germ count, 2 days [1, 5]: 670.000 | PA germ count, 7 days [1, 6]: 570.000 | PA germ count, 14 days [1, 7]: 780.000 | EC germ count, 2 days [2, 5]: 960.000 | EC germ count, 7 days [2, 6]: 490.000 | EC germ count, 14 days [2, 7]: 310.000 | EC germ count, 28 days [2, 8]: 380.000 | CA germ count, 28 days [3, 8]: 630.000 | SA germ count, 2 days [4, 5]: 110.000 | SA germ count, 7 days [4, 6]: 760 | SA germ count, 14 days [4, 7]: 1 | SA germ count, 28 days [4, 8]: 1

Cc1cc(O)ccc1C(C)C [0.1% o-Cymen-5-ol]
count at 7 days ([1]; 7 days after inoculation): 250.000 | count at 14 days ([1]; 14 days after inoculation): 900.000 | count at 28 days ([1]; 28 days after inoculation): 460.000 | count at 7 days [2, 9]: 270.000 | count at 14 days [2, 10]: 270.000 | count at 28 days [2, 11]: 51.000 | count at 28 days ([3]; 28 days after inoculation): 690.000 | count at 7 days ([4]; 7 days after inoculation): 18.000 | count at 14 days ([4]; 14 days after inoculation): 1 | count at 28 days ([4]; 28 days after inoculation): 1

CCCCC(CC)COCC(O)CO (stereo not drawn) [Ethylhexlglycerin, Ethylhexylglycerin, reference compound]
germ count PA, 2 days [1, 12]: 1 | germ count PA, 7 days [1, 13]: 1 | germ count PA, 14 days [1, 14]: 1 | germ count PA, 28 days [1, 15]: 1 | number of microorganisms, 2 days ([1]; PET, Pseudomonas aeruginosa (PA), 2 days after inoculation): 1 | number of microorganisms, 7 days ([1]; PET, Pseudomonas aeruginosa (PA), 7 days after inoculation): 1 | number of microorganisms, 14 days ([1]; PET, Pseudomonas aeruginosa (PA), 14 days after inoculation): 1 | number of microorganisms, 28 days ([1]; PET, Pseudomonas aeruginosa (PA), 28 days after inoculation): 1 | germ count EC, 2 days [2, 12]: 10.000 | germ count EC, 7 days [2, 13]: 82 | germ count EC, 14 days [2, 14]: 1 | germ count EC, 28 days [2, 15]: 1 | number of microorganisms, 2 days ([2]; PET, Escherichia coli (EC), 2 days after inoculation): 10.000 | number of microorganisms, 7 days ([2]; PET, Escherichia coli (EC), 7 days after inoculation): 82 | number of microorganisms, 14 days ([2]; PET, Escherichia coli (EC), 14 days after inoculation): 1 | number of microorganisms, 28 days ([2]; PET, Escherichia coli (EC), 28 days after inoculation): 1 | germ count CA, 28 days [3, 15]: 950.000 | number of microorganisms, 28 days ([3]; PET, Candida albicans (CA), 28 days after inoculation): 950.000 | germ count SA, 2 days [4, 12]: 240.000 | germ count SA, 7 days [4, 13]: 36 | germ count SA, 14 days [4, 14]: 1 | germ count SA, 28 days [4, 15]: 1 | number of microorganisms, 2 days ([4]; PET, Staphylococcus aureus (SA), 2 days after inoculation): 240.000 | number of microorganisms, 7 days ([4]; PET, Staphylococcus aureus (SA), 7 days after inoculation): 36 | number of microorganisms, 14 days ([4]; PET, Staphylococcus aureus (SA), 14 days after inoculation): 1 | number of microorganisms, 28 days ([4]; PET, Staphylococcus aureus (SA), 28 days after inoculation): 1

CC(C)=CCC/C(C)=C/CC/C(C)=C/CO [0.3% farnesol]
count at 2 days ([1]; 2 days after inoculation): 460.000 | count at 7 days ([1]; 7 days after inoculation): 380.000 | count at 14 days ([1]; 14 days after inoculation): 610.000 | count at 28 days ([1]; 28 days after inoculation): 65.000 | count at 7 days [2, 9]: 390.000 | count at 14 days [2, 10]: 12.000 | count at 28 days [2, 11]: 1.000 | count at 7 days ([3]; 7 days after inoculation): 880.000 | count at 2 days ([4]; 2 days after inoculation): 720.000 | count at 7 days ([4]; 7 days after inoculation): 52.000 | count at 14 days ([4]; 14 days after inoculation): 100.000 | count at 28 days ([4]; 28 days after inoculation): 33.000

CCCCCCC(O)CO (stereo not drawn) [0.1% 1,2-octanediol]
PA germ count, 14 days [1, 16]: 750.000 | PA germ count, 28 days [1, 17]: 350.000 | EC germ count, 28 days [2, 17]: 2.300 | SA germ count, 2 days ([4]; in wet wipes, 2 days after inoculation): 425 | SA germ count, 7 days ([4]; in wet wipes, 7 days after inoculation): 50 | SA germ count, 14 days [4, 16]: 50 | SA germ count, 28 days [4, 17]: 50

CCCCCC(O)CO (stereo not drawn) [0.4 % 1,2-heptanediol]
count at 2 days ([1]; 2 days after inoculation): 1 | count at 7 days ([1]; 7 days after inoculation): 1 | count at 14 days ([1]; 14 days after inoculation): 1 | count at 28 days ([1]; 28 days after inoculation): 1 | count at 2 days ([2]; EC, 2 days after inoculation, use concentration in label): 140 | count at 7 days [2, 9]: 1 | count at 14 days [2, 10]: 1 | count at 28 days [2, 11]: 1 | count at 7 days ([3]; 7 days after inoculation): 39.000 | count at 14 days ([3]; 14 days after inoculation): 590 | count at 28 days ([3]; 28 days after inoculation): 27 | count at 2 days ([4]; 2 days after inoculation): 1 | count at 7 days ([4]; 7 days after inoculation): 1 | count at 14 days ([4]; 14 days after inoculation): 1 | count at 28 days ([4]; 28 days after inoculation): 1

CCCCC(O)C(C)O (stereo not drawn) [0.4% 2,3 Heptandiol]
count at 2 days ([1]; 2 days after inoculation): 1 | count at 7 days ([1]; 7 days after inoculation): 1 | count at 14 days ([1]; 14 days after inoculation): 1 | count at 28 days ([1]; 28 days after inoculation): 1 | count at 7 days [2, 9]: 1 | count at 14 days [2, 10]: 1 | count at 28 days [2, 11]: 1 | count at 14 days ([3]; 14 days after inoculation): 39.000 | count at 28 days ([3]; 28 days after inoculation): 76.000 | count at 7 days ([4]; 7 days after inoculation): 1 | count at 14 days ([4]; 14 days after inoculation): 1 | count at 28 days ([4]; 28 days after inoculation): 1

CCCCCC(O)CO (stereo not drawn) [0.2% 1.2-heptanediol]
EC germ count, 2 days [2, 5]: 780.000 | EC germ count, 7 days [2, 6]: 83.000 | EC germ count, 14 days [2, 7]: 11.000 | EC germ count, 28 days [2, 8]: 180 | CA germ count, 28 days [3, 8]: 310.000 | SA germ count, 2 days [4, 5]: 12.000 | SA germ count, 7 days [4, 6]: 1
